Measured values as given in the supplement of paper PMC10307832.

Key:
Assay in all cases: relative viability (nuclei count vs DMSO), 5 days (fraction); higher = more cells survive
[1] = compound: Cc1cnc(Nc2ccc(OCCN3CCCC3)cc2)nc1Nc1cccc(S(=O)(=O)NC(C)(C)C)c1 [Fedratinib] + Cc1nc(NC(=O)N2CCC[C@H]2C(N)=O)sc1-c1ccnc(C(C)(C)C(F)(F)F)c1 [Alpelisib] (partner 2 µM)
How it was run: (§1)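 Five library-drug doses in √10 steps were combined with a fixed anchor-drug dose, or a single drug was given alone, by pin tool to lung cancer cell lines in 1536-well plates the day after seeding. Nuclei were stained and counted after 5 days. Relative viability is the nuclei count in treated wells over that in vehicle wells, taken as the median of duplicate plates.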

[2] = compound: COC1=CC=C(C=C1)COC2=C(C=C(C=C2)CC3=CN=C(N=C3N)N)OC [GW-2580] + O=C(CCCCCCC(=O)Nc1ccccc1)NO [Vorinostat] (partner 1 µM)
How it was run: as §1

[3] = compound: Cc1cnc(Nc2ccc(OCCN3CCCC3)cc2)nc1Nc1cccc(S(=O)(=O)NC(C)(C)C)c1 [Fedratinib] + CS(=O)(=O)CCNCc1ccc(-c2ccc3ncnc(Nc4ccc(OCc5cccc(F)c5)c(Cl)c4)c3c2)o1 [Lapatinib] (partner 2 µM)
How it was run: as §1

[4] = compound: COC1=CC=C(C=C1)COC2=C(C=C(C=C2)CC3=CN=C(N=C3N)N)OC [GW-2580] + Nc1ncn([C@H]2C[C@H](O)[C@@H](CO)O2)c(=O)n1 [Decitabine] (partner 2 µM)
How it was run: as §1

[5] = compound: COC1=CC=C(C=C1)COC2=C(C=C(C=C2)CC3=CN=C(N=C3N)N)OC [GW-2580] + NC(=O)Nc1cc(-c2cccc(F)c2)sc1C(=O)N[C@H]1CCCNC1 [AZD7762] (partner 0.2 µM)
How it was run: as §1

| Cell Line | relative viability ([1]; first compound 0.1 µM) | relative viability ([1]; first compound 0.3162 µM) | relative viability ([1]; first compound 1 µM) | relative viability ([2]; first compound 0.08 µM) | relative viability ([2]; first compound 0.8 µM) | relative viability ([2]; first compound 2.53 µM) | relative viability ([2]; first compound 8 µM) | relative viability ([3]; first compound 0.1 µM) | relative viability ([3]; first compound 0.3162 µM) | relative viability ([3]; first compound 1 µM) | relative viability ([4]; first compound 0.08 µM) | relative viability ([4]; first compound 0.8 µM) | relative viability ([4]; first compound 2.53 µM) | relative viability ([4]; first compound 8 µM) | relative viability ([5]; first compound 0.08 µM) | relative viability ([5]; first compound 0.8 µM) | relative viability ([5]; first compound 2.53 µM) | relative viability ([5]; first compound 8 µM) |
| --- | --- | --- | --- | --- | --- | --- | --- | --- | --- | --- | --- | --- | --- | --- | --- | --- | --- | --- |
| 201T | 1.04 | 0.974 | 0.99 | 1.01 | 0.949 | 0.992 | 0.883 | 1.01 | 0.944 | 0.976 | 0.895 | 0.914 | 0.873 | 0.887 | 0.575 | 0.579 | 0.583 | 0.627 |
| A549 | 0.74 | 0.691 | 0.622 |  |  |  |  | 1.16 | 0.907 | 0.875 |  | 0.264 | 0.21 | 0.288 |  |  |  |  |
| A-427 | 1.07 | 0.949 | 0.959 | 0.534 | 0.97 | 0.806 | 0.848 | 1.06 | 0.984 | 0.591 | 0.541 | 0.555 | 0.531 | 0.618 | 0.753 | 0.668 | 0.568 | 0.627 |
| ABC-1 | 0.979 | 0.994 | 1.12 | 0.972 | 1.17 | 1.06 | 0.98 | 1.28 | 1.16 | 1.46 | 0.72 | 1.01 | 1.22 | 0.934 | 0.836 | 0.941 | 0.717 | 0.829 |
| BEN | 0.83 | 0.972 | 0.891 | 0.587 | 0.565 | 0.559 | 0.633 | 0.665 | 0.585 | 0.543 | 0.703 | 0.79 | 0.619 | 0.677 | 0.642 | 0.809 | 0.599 | 0.751 |
| CAL-12T | 1.13 | 1.16 | 1.06 | 0.777 | 0.697 | 0.978 | 0.859 | 0.688 | 0.698 | 0.607 |  |  |  |  | 0.639 | 0.737 | 0.602 | 0.594 |
| COR-L23 | 0.752 | 0.74 | 0.778 | 0.495 | 0.516 | 0.426 | 0.524 | 1.04 | 0.999 | 1.07 | 0.451 | 0.462 | 0.448 | 0.432 |  |  |  |  |
| COR-L 105 | 1.04 | 1.06 | 0.793 | 0.833 | 0.926 | 0.561 | 0.697 | 0.297 | 0.379 | 0.336 | 0.755 | 0.739 | 0.675 | 0.558 |  |  |  |  |
| Calu-6 | 0.915 | 0.906 | 0.801 |  |  |  |  | 1.29 | 1 | 0.945 |  |  |  |  |  |  |  |  |
| ChaGo-K-1 |  |  |  | 0.743 | 0.726 | 0.768 | 0.794 |  |  |  | 0.561 | 0.515 | 0.495 | 0.519 | 0.933 | 0.887 | 0.839 | 0.878 |
| EBC-1 | 0.743 | 0.808 | 0.592 |  |  |  |  | 0.175 | 0.193 | 0.177 |  |  |  |  |  |  |  |  |
| EKVX | 0.898 | 1.04 | 0.931 | 0.711 | 0.951 | 0.808 | 0.679 | 0.209 | 0.206 | 0.252 | 0.578 | 0.749 | 0.345 | 0.335 | 0.7 | 0.777 | 0.644 | 0.804 |
| EMC-BAC-2 | 0.85 | 0.754 | 0.711 | 0.418 | 0.733 |  | 0.376 | 1 | 0.901 | 0.909 | 0.977 | 0.961 |  | 0.943 | 1.15 | 1.33 |  | 1.01 |
| EPLC-272H | 1.05 | 0.915 | 0.914 | 0.381 | 0.409 | 0.301 | 0.334 | 0.958 | 1.01 | 0.119 | 0.391 | 0.366 |  | 0.368 | 0.221 | 0.315 |  | 0.297 |
| H3255 | 0.458 | 0.715 | 0.652 | 0.802 | 0.875 | 0.75 | 0.771 | 0.216 | 0.231 | 0.218 | 0.564 | 0.613 | 0.557 | 0.576 | 0.876 | 1.22 | 0.817 | 0.758 |
| HARA | 0.84 | 0.793 | 0.743 | 0.561 | 0.601 | 0.548 | 0.588 | 0.75 | 0.627 | 0.384 | 0.658 | 0.617 | 0.599 | 0.409 | 0.302 | 0.252 | 0.294 | 0.221 |
| HCC-15 | 0.746 | 0.793 | 0.758 | 0.866 | 1.07 | 0.787 | 0.75 | 0.879 | 0.876 | 0.446 | 0.631 | 0.818 | 0.636 | 0.69 | 1.02 | 1.44 | 1.21 | 1.39 |
| HCC-44 | 0.759 | 0.771 | 0.801 | 1.13 | 1.08 | 1.19 | 1.1 | 1.04 | 0.911 | 0.901 | 0.97 | 0.912 | 0.974 | 1.08 | 0.994 | 1 | 1.03 | 0.999 |
| HCC-78 | 0.324 |  | 0.34 | 0.461 | 0.441 | 0.389 | 0.39 | 0.929 |  | 0.609 | 0.699 | 0.786 | 0.634 | 0.698 | 0.637 | 0.663 | 0.564 | 0.589 |
| HCC-366 | 0.273 | 0.458 | 0.356 | 0.344 | 0.395 | 0.342 | 0.357 | 1.34 | 0.989 | 0.304 | 0.328 | 0.375 | 0.352 | 0.449 | 0.359 | 0.317 | 0.27 | 0.142 |
